Reference: ChEMBL document CHEMBL5120794, “Development of 5-hydroxyl-1-azabenzanthrone derivatives as dual binding site and selective acetylcholinesterase inhibitors” (Eur J Med Chem, 2022)
Values belong to the compound of their own block, whether it stands above or below them. The source made the active and inactive calls. No cut-off for these calls is given here.

Legend:
in vitro = conditions: PAMPA
PC-12 [1] = test: Cytoprotective activity against H2O2-induced oxidative damage in rat PC-12 cells assessed as cell viability at 1 uM preincubated for 4 hrs followed by H2O2 treatment for another 24 hrs by MTT assay; format: functional, cell-based; conditions: time 28.0 hrs
Acetylcholinesterase = Acetylcholinesterase (Electrophorus electricus, UniProt O42275); test: Inhibition of Electrophorus electricus AchE using […] as substrate incubated for 10 mins followed by substrate addition measured at 0 to 180 secs by Ellman's method
Cholinesterase = Cholinesterase (Equus caballus, UniProt P81908)
Description: Inhibition of equine serum BchE using S-butyryl thiocholine iodide as substrate incubated for 10 mins followed by substrate addition measured at 0 to 180 secs by Ellman's method

[2] = biological target: Amyloid-beta precursor protein (Homo sapiens) (UniProt P05067); test: Inhibition of amyloid beta (1 to 42) (unknown origin) self-induced aggregation at 25 uM measured after 46 to 48 hrs by Thioflavin binding assay relative to control; conditions: time 46-48 hrs
[3] = Toxicity in sopolamine-induced cognitive impairment ICR mouse model assessed as diarrhea at 10 mg/kg, ip administered for 14 consecutive days followed by scopolmaine-stimulation measured on day 21; format: organism-based; conditions: in vivo, 504 h, time 21 day
[4] = Toxicity in sopolamine-induced cognitive impairment ICR mouse model assessed as morphological change in lung at 10 mg/kg, ip administered for 14 consecutive days followed by scopolmaine-stimulation measured on day 21 by H and E staining method; format: organism-based; conditions: in vivo, 504 h, time 21 day
PC-12 [5] = test: Induction of apoptosis in rat PC-12 cells assessed as necrotic cells at 0.3 uM preincubated for 4 hrs followed by H2O2 treatment for another 24 hrs by Annexin V and PI double staining based flow cytometric analysis (RVB = 2.94 %); format: functional; conditions: time 28 hrs
PC-12 [6] = test: Induction of apoptosis in rat PC-12 cells assessed as late apoptotic cells at 0.3 uM preincubated for 4 hrs followed by H2O2 treatment for another 24 hrs by Annexin V and PI double staining based flow cytometric analysis (RVB = 5.46 %); format: functional; conditions: time 28 hrs
[7] = Clearance in Sprague-Dawley rat plasma at 2 mg/kg, iv measured at 10 to 1440 mins by LC-MS/MS analysis; format: ADME, organism-based; conditions: time 10-1440 min
[8] = Toxicity in sopolamine-induced cognitive impairment ICR mouse model assessed as emesis at 10 mg/kg, ip administered for 14 consecutive days followed by scopolmaine-stimulation measured on day 21; format: organism-based; conditions: in vivo, 504 h, time 21 day
PC-12 [9] = test: Induction of apoptosis in rat PC-12 cells assessed as viable cells at 0.3 uM preincubated for 4 hrs followed by H2O2 treatment for another 24 hrs by Annexin V and PI double staining based flow cytometric analysis (RVB = 87.1 %); format: functional; conditions: time 28 hrs, read-out: Activity
[10] = Tmax in Sprague-Dawley rat plasma at 2 mg/kg, iv measured at 10 to 1440 mins by LC-MS/MS analysis; format: ADME, organism-based; conditions: time 10-1440 min
PC-12 [11] = test: Induction of apoptosis in rat PC-12 cells assessed as viable cells at 0.5 uM preincubated for 4 hrs followed by H2O2 treatment for another 24 hrs by Annexin V and PI double staining based flow cytometric analysis (RVB = 87.1 %); format: functional; conditions: time 28 hrs, read-out: Activity
[12] = Cmax in Sprague-Dawley rat plasma at 2 mg/kg, iv measured at 10 to 1440 mins by LC-MS/MS analysis; format: ADME, organism-based; parameters: time lower 10 min, dose 2 mg/kg, time upper 1440 min, route iv
Mus musculus [13] = test: Antialzheimer activity in ICR mouse assessed as reduction in scopolamine-induced cognitive impairment at 2.5 to 10 mg/kg, ip administered for 14 consecutive days followed by scopolmaine-stimulation measured on day 21 by Morris water maze test; format: functional, organism-based; conditions: dose 2.5-10 mg/kg, time 21.0 day, DDE = dose-dependent effect
[14] = Half life in Sprague-Dawley rat plasma at 2 mg/kg, iv measured at 10 to 1440 mins by LC-MS/MS analysis; format: ADME, organism-based; conditions: time 10-1440 min
[15] = Half life in Sprague-Dawley rat plasma at 10 mg/kg, IG measured at 10 to 1440 mins by LC-MS/MS analysis; format: ADME, organism-based; conditions: po, time 10-1440 min
PC-12 [16] = test: Inhibition of ROS production in rat PC-12 cells assessed as intracellular ROS level at 0.1 to 0.5 uM preincubated for 4 hrs followed by H2O2 treatment for another 24 hrs by flow cytometric analysis (RVB = 1.58); format: functional; conditions: dose 0.1-0.5 µM; time 28 hrs
[17] = Toxicity in sopolamine-induced cognitive impairment ICR mouse model assessed as morphological change in renal at 10 mg/kg, ip administered for 14 consecutive days followed by scopolmaine-stimulation measured on day 21 by H and E staining method; format: organism-based; conditions: in vivo, 504 h, time 21 day
[18] = MRT infinity in Sprague-Dawley rat plasma at 10 mg/kg, IG measured at 10 to 1440 mins by LC-MS/MS analysis; format: ADME, organism-based; conditions: po, time 10-1440 min
[19] = Toxicity in sopolamine-induced cognitive impairment ICR mouse model assessed as morphological change in spleen at 10 mg/kg, ip administered for 14 consecutive days followed by scopolmaine-stimulation measured on day 21 by H and E staining method; format: organism-based; conditions: in vivo, 504 h, time 21 day
[20] = Cmax in Sprague-Dawley rat plasma at 10 mg/kg, IG measured at 10 to 1440 mins by LC-MS/MS analysis; format: ADME, organism-based; parameters: dose 10 mg/kg, time 10-1440 min, route ig; conditions: po
PC-12 [21] = test: Induction of apoptosis in rat PC-12 cells assessed as late apoptotic cells at 0.5 uM preincubated for 4 hrs followed by H2O2 treatment for another 24 hrs by Annexin V and PI double staining based flow cytometric analysis (RVB = 5.46 %); format: functional; conditions: time 28 hrs
[22] = AUC (0 to 24 hrs) in Sprague-Dawley rat plasma at 10 mg/kg, IG measured at 10 to 1440 mins by LC-MS/MS analysis; format: ADME, organism-based; parameters: dose 10 mg/kg, time 10-1440 min, route ig; conditions: po
[23] = AUC (0 to infinity) in Sprague-Dawley rat plasma at 10 mg/kg, IG measured at 10 to 1440 mins by LC-MS/MS analysis; format: ADME, organism-based; parameters: time lower 10 min, dose 10 mg/kg, time upper 1440 min, route ig; conditions: po
PC-12 [24] = test: Antioxidant activity in H2O2-induced oxidative stress in rat PC-12 cells assessed as increase in expression of Nrf2 level preincubated for 4 hrs followed by H2O2 treatment for another 24 hrs by Western blotting analysis; format: functional, cell-based; conditions: dose 0.5-3 µM, time 28.0 hrs, DDE = dose-dependent effect
PC-12 [25] = test: Induction of apoptosis in rat PC-12 cells assessed as early apoptotic cells at 0.5 uM preincubated for 4 hrs followed by H2O2 treatment for another 24 hrs by Annexin V and PI double staining based flow cytometric analysis (RVB = 4.52 %); format: functional; conditions: time 28 hrs
PC-12 [26] = test: Induction of apoptosis in rat PC-12 cells assessed as late apoptotic cells at 0.1 uM preincubated for 4 hrs followed by H2O2 treatment for another 24 hrs by Annexin V and PI double staining based flow cytometric analysis (RVB = 5.46 %); format: functional; conditions: time 28 hrs
PC-12 [27] = test: Induction of apoptosis in rat PC-12 cells assessed as early apoptotic cells at 0.3 uM preincubated for 4 hrs followed by H2O2 treatment for another 24 hrs by Annexin V and PI double staining based flow cytometric analysis (RVB = 4.52 %); format: functional; conditions: time 28 hrs
[28] = Toxicity in sopolamine-induced cognitive impairment ICR mouse model assessed as morphological change in heart at 10 mg/kg, ip administered for 14 consecutive days followed by scopolmaine-stimulation measured on day 21 by H and E staining method; format: organism-based; conditions: in vivo, 504 h, time 21 day
PC-12 [29] = test: Induction of apoptosis in rat PC-12 cells assessed as viable cells at 0.1 uM preincubated for 4 hrs followed by H2O2 treatment for another 24 hrs by Annexin V and PI double staining based flow cytometric analysis (RVB = 87.1 %); format: functional; conditions: time 28 hrs, read-out: Activity
[30] = AUC (0 to infinity) in Sprague-Dawley rat plasma at 2 mg/kg, iv measured at 10 to 1440 mins by LC-MS/MS analysis; format: ADME, organism-based; parameters: time lower 10 min, dose 2 mg/kg, time upper 1440 min, route iv
Mus musculus [31] = test: Antialzheimer activity in scopolamine-induced cognitive impairment ICR mouse model assessed as improvement of exploration ability at 2.5 to 10 mg/kg, ip administered for 14 consecutive days followed by scopolmaine-stimulation measured on day 21 by Y maze test; format: functional; conditions: dose 2.5-10 mg/kg, time 21 day
[32] = AUC (0 to 24 hrs) in Sprague-Dawley rat plasma at 2 mg/kg, iv measured at 10 to 1440 mins by LC-MS/MS analysis; format: ADME, organism-based; parameters: time lower 10 min, dose 2 mg/kg, time upper 1440 min, route iv
[33] = Clearance in Sprague-Dawley rat plasma at 10 mg/kg, IG measured at 10 to 1440 mins by LC-MS/MS analysis; format: ADME, organism-based; conditions: po, time 10-1440 min
PC-12 [34] = test: Induction of apoptosis in rat PC-12 cells assessed as necrotic cells at 0.5 uM preincubated for 4 hrs followed by H2O2 treatment for another 24 hrs by Annexin V and PI double staining based flow cytometric analysis (RVB = 2.94 %); format: functional; conditions: time 28 hrs
[35] = Toxicity in sopolamine-induced cognitive impairment ICR mouse model assessed as swimming motility impairment at 10 mg/kg, ip administered for 14 consecutive days followed by scopolmaine-stimulation measured on day 21; format: organism-based; conditions: in vivo, 504 h, time 21 day
[36] = Tmax in Sprague-Dawley rat plasma at 10 mg/kg, IG measured at 10 to 1440 mins by LC-MS/MS analysis; format: ADME, organism-based; conditions: po, time 10-1440 min
[37] = MRT infinity in Sprague-Dawley rat plasma at 2 mg/kg, iv measured at 10 to 1440 mins by LC-MS/MS analysis; format: ADME, organism-based; conditions: time 10-1440 min
PC-12 [38] = test: Cytoprotective activity against H2O2-induced oxidative damage in rat PC-12 cells assessed as cell viability at 1 to 3 uM preincubated for 4 hrs followed by H2O2 treatment for another 24 hrs by MTT assay; format: functional, cell-based; conditions: dose 1-3 µM, time 28.0 hrs
[39] = Bioavailability in Sprague-Dawley rat plasma at 10 mg/kg, IG measured at 10 to 1440 mins by LC-MS/MS analysis; format: ADME, organism-based; conditions: po, time 10-1440 min
PC-12 [40] = test: Induction of apoptosis in rat PC-12 cells assessed as early apoptotic cells at 0.1 uM preincubated for 4 hrs followed by H2O2 treatment for another 24 hrs by Annexin V and PI double staining based flow cytometric analysis (RVB = 4.52 %); format: functional; conditions: time 28 hrs
[41] = Toxicity in sopolamine-induced cognitive impairment ICR mouse model assessed as morphological change in liver at 10 mg/kg, ip administered for 14 consecutive days followed by scopolmaine-stimulation measured on day 21 by H and E staining method; format: organism-based; conditions: in vivo, 504 h, time 21 day
PC-12 [42] = test: Antioxidant activity in H2O2-induced oxidative stress in rat PC-12 cells assessed as increase in expression of HO-1 level preincubated for 4 hrs followed by H2O2 treatment for another 24 hrs by Western blotting analysis; format: functional, cell-based; conditions: dose 0.5-3 µM, time 28.0 hrs, DDE = dose-dependent effect
PC-12 [43] = test: Induction of apoptosis in rat PC-12 cells assessed as necrotic cells at 0.1 uM preincubated for 4 hrs followed by H2O2 treatment for another 24 hrs by Annexin V and PI double staining based flow cytometric analysis (RVB = 2.94 %); format: functional; conditions: time 28 hrs

Chain of Acetylcholinesterase (O42275 whole entry): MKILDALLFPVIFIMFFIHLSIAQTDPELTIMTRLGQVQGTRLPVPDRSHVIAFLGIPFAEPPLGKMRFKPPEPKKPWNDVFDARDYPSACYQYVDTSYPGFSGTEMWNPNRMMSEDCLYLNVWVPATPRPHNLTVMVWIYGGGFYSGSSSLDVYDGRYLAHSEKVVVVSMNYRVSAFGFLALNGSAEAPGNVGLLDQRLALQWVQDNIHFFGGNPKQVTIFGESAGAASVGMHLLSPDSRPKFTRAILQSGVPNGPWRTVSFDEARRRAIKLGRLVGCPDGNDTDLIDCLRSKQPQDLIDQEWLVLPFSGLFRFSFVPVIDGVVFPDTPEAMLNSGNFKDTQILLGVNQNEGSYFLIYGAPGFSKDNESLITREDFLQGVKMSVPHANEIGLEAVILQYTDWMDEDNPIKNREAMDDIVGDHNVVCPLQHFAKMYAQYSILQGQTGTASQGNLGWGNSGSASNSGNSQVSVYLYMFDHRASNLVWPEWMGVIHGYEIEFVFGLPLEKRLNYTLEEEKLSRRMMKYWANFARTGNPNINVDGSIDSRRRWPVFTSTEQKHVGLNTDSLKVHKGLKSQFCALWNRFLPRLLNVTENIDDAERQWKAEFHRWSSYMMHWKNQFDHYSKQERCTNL
Chain of Amyloid-beta precursor protein (Homo sapiens) (P05067 whole entry): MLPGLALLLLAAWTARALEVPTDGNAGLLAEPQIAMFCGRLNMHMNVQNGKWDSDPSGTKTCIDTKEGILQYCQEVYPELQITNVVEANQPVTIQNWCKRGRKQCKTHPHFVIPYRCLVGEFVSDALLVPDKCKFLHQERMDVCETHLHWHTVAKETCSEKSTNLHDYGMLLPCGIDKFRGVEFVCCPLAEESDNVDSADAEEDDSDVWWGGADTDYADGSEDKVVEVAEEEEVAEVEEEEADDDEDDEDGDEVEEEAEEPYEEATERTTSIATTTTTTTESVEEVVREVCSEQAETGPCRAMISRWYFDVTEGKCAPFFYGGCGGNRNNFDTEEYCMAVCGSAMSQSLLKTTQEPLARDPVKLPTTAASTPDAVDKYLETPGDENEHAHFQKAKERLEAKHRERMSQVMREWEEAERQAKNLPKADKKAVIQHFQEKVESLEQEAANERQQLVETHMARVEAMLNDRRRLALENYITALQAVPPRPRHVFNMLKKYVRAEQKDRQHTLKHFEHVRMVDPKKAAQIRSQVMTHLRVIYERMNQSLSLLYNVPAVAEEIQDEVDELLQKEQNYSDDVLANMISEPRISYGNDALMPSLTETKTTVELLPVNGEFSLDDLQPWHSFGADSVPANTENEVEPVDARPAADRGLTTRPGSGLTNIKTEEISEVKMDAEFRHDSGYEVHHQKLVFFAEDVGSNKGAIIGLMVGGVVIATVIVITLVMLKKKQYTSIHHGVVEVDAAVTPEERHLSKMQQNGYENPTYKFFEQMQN
Chain of Cholinesterase (P81908 whole entry): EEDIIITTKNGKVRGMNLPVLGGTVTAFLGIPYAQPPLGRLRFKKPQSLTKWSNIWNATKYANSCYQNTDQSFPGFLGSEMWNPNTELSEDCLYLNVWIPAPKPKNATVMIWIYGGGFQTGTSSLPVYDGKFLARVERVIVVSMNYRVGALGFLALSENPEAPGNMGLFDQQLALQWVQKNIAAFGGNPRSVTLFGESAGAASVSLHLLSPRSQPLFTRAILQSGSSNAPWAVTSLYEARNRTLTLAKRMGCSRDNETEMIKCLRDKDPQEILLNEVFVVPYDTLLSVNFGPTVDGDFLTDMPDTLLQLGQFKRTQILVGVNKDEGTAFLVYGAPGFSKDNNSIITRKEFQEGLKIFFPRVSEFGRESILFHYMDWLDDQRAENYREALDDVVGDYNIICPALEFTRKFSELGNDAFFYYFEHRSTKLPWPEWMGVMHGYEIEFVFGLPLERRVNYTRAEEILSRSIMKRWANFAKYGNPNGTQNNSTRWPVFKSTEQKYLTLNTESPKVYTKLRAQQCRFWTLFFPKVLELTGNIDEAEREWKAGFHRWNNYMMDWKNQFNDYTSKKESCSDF

Papp (in vitro): 5.7 ×10⁻⁶ cm/s
Structure (SMILES): Clc1cccc(Cl)c1N=C1NCCN1 [CLONIDINE]

Structure (SMILES): O=C1c2ccccc2-c2nccc3cc(OCCN4CCN(CCO)CC4)cc1c23
Activity (PC-12 [1]): Active
IC50 (Acetylcholinesterase): 420 nM
IC50 (Cholinesterase): > 100000 nM
inhibition [2]: 14.9%

Structure (SMILES): CC1CCCCN1CCCOc1cc2c3c(nccc3c1)-c1ccccc1C2=O (stereo not given)
Activity [3]: Non-Toxic
Activity [4]: Non-Toxic
Activity (PC-12 [5]): 2.99%
Activity (PC-12 [6]): 6.09%
clearance [7]: 116 mL/min/kg
Activity [8]: Non-Toxic
viability at 0.3 µM (PC-12 [9]): 86.9%
Tmax [10]: 4.98 min
Activity (PC-12 [1]): Active
IC50 (Acetylcholinesterase): 45 nM
viability at 0.5 µM (PC-12 [11]): 88.5%
Cmax [12]: 103 ng/mL
Papp (in vitro): 16.6 ×10⁻⁶ cm/s
Activity (Mus musculus [13]): Dde
half-life [14]: 3.73 h
half-life [15]: 6.47 h
Activity (PC-12 [16]): 1.1
Activity [17]: Non-Toxic
MRT inf [18]: 6.48 h
Activity [19]: Non-Toxic
Cmax [20]: 68.5 ng/mL
IC50 (Cholinesterase): 19700 nM
Activity (PC-12 [21]): 4.81%
AUC(0-t) [22]: 704 ng·h/mL
AUC(0-inf) [23]: 841 ng·h/mL
Activity (PC-12 [24]): Dde
Activity (PC-12 [25]): 3.71%
Activity (PC-12 [26]): 8.98%
Activity (PC-12 [27]): 3.99%
Activity [28]: Non-Toxic
viability at 0.1 µM (PC-12 [29]): 79.7%
AUC(0-inf) [30]: 288 ng·h/mL
Activity (Mus musculus [31]): 45.98%
AUC(0-t) [32]: 254 ng·h/mL
CL/F [33]: 208 mL/min/kg
Activity (PC-12 [34]): 2.96%
Activity [35]: Non-Toxic
Tmax [36]: 3.33 h
MRT inf [37]: 2.79 h
Activity (PC-12 [38]): Active
inhibition [2]: 35.3%
bioavailability [39]: 55.5%
Activity (PC-12 [40]): 6.76%
Activity [41]: Non-Toxic
Activity (PC-12 [42]): Dde
Activity (PC-12 [43]): 4.58%

Structure (SMILES): CC1CCCCN1CCOc1cc2c3c(nccc3c1)-c1ccccc1C2=O (stereo not given)
Activity (PC-12 [1]): Active
IC50 (Acetylcholinesterase): 1310 nM
IC50 (Cholinesterase): > 100000 nM
inhibition [2]: 16.2%
